# Legend:
# Test in all cases: KINOMEscan kinase binding assay
# [1] = molecular target: T1, 384 kinases from the human genome (Homo sapiens, UniProt P15056)
# T1 construct: purchased Eurofin/DiscoverX
# In short: (§1)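 Competition binding (KINOMEscan) across 384 human kinases with compound at 10 µM. Ligand binding was expressed relative to DMSO (100%) as the average of duplicates from one experiment. S(10) selectivity score was derived.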
# [2] = molecular target: T2, 384 kinases from the human genome (Homo sapiens, UniProt Q13882); details: kinase BRK (Entrez PTK6)
# T2 construct: purchased Eurofin/DiscoverX
# In short: as §1
# [3] = molecular target: T3, 384 kinases from the human genome (Homo sapiens, UniProt Q06418); details: kinase TYRO3 (Entrez TYRO3)
# T3 construct: purchased Eurofin/DiscoverX
# In short: as §1
# [4] = molecular target: T4, 384 kinases from the human genome (Homo sapiens, UniProt P54646); details: kinase AMPK-alpha2 (Entrez PRKAA2)
# T4 construct: purchased Eurofin/DiscoverX
# In short: as §1
# [5] = molecular target: T5, 384 kinases from the human genome (Homo sapiens, UniProt P27037); details: kinase ACVR2A (Entrez ACVR2A)
# T5 construct: purchased Eurofin/DiscoverX
# In short: as §1
# [6] = molecular target: T6, 384 kinases from the human genome (Homo sapiens, UniProt Q15208); details: kinase NDR1 (Entrez STK38)
# T6 construct: purchased Eurofin/DiscoverX
# In short: as §1
# [7] = molecular target: T7, 384 kinases from the human genome (Homo sapiens, UniProt P36888)
# T7 construct: purchased Eurofin/DiscoverX
# T7 sequence (P36888 27-993): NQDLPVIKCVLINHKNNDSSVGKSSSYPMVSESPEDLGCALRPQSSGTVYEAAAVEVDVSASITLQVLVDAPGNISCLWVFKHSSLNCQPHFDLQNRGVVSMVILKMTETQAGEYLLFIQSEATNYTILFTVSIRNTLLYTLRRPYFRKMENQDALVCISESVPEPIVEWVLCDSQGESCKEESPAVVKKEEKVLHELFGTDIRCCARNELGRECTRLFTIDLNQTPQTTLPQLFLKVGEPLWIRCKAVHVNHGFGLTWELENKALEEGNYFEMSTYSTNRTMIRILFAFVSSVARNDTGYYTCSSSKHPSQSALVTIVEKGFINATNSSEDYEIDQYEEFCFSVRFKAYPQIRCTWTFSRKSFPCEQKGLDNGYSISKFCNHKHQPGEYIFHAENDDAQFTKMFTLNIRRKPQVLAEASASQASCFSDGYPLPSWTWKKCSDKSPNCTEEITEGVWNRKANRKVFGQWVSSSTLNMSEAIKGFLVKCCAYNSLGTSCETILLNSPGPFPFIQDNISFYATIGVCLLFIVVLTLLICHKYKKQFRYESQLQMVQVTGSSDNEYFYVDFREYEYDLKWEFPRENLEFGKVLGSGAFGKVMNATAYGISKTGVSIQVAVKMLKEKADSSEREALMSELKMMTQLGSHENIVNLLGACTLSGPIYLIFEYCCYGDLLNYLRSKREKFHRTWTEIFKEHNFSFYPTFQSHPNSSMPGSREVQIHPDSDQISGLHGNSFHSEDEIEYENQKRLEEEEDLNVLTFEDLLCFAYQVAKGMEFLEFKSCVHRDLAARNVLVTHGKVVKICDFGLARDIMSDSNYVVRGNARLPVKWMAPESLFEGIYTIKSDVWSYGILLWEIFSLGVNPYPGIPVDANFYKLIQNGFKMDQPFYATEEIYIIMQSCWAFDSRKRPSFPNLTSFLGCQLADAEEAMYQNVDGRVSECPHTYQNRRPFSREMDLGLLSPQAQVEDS
# In short: as §1
# [8] = molecular target: T8, 384 kinases from the human genome (Homo sapiens, UniProt P57078); details: kinase RIPK4 (Entrez RIPK4)
# T8 construct: purchased Eurofin/DiscoverX
# In short: as §1
# [9] = molecular target: T9, 384 kinases from the human genome (Homo sapiens, UniProt P53350); details: kinase PLK1 (Entrez PLK1)
# T9 construct: purchased Eurofin/DiscoverX
# In short: as §1
# [10] = molecular target: T10, 384 kinases from the human genome (Homo sapiens, UniProt P31152); details: kinase ERK4 (Entrez MAPK4)
# T10 construct: purchased Eurofin/DiscoverX
# In short: as §1
# [11] = molecular target: T11, 384 kinases from the human genome (Homo sapiens, UniProt Q9UF33); details: kinase EPHA6 (Entrez EPHA6)
# T11 construct: purchased Eurofin/DiscoverX
# In short: as §1
# [12] = molecular target: T12, 384 kinases from the human genome (Homo sapiens, UniProt Q9Y2H9); details: kinase MAST1 (Entrez MAST1)
# T12 construct: purchased Eurofin/DiscoverX
# In short: as §1
# [13] = molecular target: T13, 384 kinases from the human genome (Homo sapiens, UniProt Q05397); details: kinase FAK (Entrez PTK2)
# T13 construct: purchased Eurofin/DiscoverX
# In short: as §1
# [14] = molecular target: T14, 384 kinases from the human genome (Homo sapiens, UniProt Q8IW41); details: kinase MAPKAPK5 (Entrez MAPKAPK5)
# T14 construct: purchased Eurofin/DiscoverX
# In short: as §1
# [15] = molecular target: T15, 384 kinases from the human genome (Homo sapiens, UniProt O15530); details: kinase PDPK1 (Entrez PDPK1)
# T15 construct: purchased Eurofin/DiscoverX
# In short: as §1
# [16] = molecular target: T16, 384 kinases from the human genome (Homo sapiens, UniProt P33981); details: kinase TTK (Entrez TTK)
# T16 construct: purchased Eurofin/DiscoverX
# In short: as §1
# T1 sequence (P15056 whole entry): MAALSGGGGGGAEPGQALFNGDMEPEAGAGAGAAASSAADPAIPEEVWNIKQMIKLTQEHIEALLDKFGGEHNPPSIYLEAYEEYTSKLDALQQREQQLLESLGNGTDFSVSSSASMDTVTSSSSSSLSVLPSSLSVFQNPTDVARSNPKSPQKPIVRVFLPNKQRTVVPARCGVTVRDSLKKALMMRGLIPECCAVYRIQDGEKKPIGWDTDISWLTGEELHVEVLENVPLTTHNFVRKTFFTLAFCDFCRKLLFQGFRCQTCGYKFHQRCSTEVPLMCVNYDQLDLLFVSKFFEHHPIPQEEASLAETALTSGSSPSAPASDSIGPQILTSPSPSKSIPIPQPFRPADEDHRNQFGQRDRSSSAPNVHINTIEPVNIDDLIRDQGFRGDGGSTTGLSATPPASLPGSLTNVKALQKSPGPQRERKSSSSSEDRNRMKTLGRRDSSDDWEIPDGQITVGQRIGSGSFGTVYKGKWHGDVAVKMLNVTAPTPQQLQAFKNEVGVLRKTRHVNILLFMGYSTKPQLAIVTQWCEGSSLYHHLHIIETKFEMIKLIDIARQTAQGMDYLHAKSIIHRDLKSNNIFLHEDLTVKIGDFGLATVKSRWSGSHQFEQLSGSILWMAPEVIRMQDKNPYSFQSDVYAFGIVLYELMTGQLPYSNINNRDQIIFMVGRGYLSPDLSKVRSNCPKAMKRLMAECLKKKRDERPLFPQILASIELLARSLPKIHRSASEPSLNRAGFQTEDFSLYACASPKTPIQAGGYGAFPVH
# T8 sequence (P57078 whole entry): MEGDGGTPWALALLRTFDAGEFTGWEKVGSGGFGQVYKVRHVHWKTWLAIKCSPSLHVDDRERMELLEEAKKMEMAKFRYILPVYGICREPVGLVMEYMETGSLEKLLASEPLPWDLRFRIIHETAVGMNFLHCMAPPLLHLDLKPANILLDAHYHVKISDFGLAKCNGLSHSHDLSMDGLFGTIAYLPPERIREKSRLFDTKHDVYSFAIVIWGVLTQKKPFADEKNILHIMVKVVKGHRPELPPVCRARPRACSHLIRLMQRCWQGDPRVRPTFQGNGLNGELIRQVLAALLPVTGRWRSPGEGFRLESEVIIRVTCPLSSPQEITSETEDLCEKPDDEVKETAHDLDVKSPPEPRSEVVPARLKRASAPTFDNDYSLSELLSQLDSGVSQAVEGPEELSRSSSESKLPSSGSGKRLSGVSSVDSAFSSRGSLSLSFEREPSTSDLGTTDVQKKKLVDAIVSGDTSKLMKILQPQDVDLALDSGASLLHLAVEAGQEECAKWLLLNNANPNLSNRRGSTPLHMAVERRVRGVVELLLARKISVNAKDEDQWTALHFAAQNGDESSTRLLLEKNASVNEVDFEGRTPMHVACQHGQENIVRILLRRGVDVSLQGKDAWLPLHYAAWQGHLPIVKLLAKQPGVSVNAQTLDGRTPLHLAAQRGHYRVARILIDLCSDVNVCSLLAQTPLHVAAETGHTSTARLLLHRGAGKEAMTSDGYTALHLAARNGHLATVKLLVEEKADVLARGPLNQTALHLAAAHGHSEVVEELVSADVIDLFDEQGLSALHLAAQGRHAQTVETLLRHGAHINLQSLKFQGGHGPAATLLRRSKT
# T9 sequence (P53350 whole entry): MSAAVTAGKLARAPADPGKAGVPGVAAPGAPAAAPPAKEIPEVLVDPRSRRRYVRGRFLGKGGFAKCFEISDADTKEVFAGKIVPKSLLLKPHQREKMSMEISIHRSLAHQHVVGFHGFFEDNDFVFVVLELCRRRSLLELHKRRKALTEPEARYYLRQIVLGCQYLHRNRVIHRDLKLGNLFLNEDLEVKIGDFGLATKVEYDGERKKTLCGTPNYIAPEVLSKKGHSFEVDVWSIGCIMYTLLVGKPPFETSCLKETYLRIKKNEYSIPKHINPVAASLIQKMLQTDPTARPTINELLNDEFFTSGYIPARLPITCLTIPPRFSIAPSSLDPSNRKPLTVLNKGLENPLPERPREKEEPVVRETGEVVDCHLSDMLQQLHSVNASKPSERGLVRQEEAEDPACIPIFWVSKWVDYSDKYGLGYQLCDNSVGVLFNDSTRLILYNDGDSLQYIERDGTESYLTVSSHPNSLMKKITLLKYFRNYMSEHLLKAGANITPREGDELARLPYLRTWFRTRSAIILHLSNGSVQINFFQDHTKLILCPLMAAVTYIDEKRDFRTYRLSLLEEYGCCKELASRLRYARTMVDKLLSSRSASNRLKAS
# T16 sequence (P33981 whole entry): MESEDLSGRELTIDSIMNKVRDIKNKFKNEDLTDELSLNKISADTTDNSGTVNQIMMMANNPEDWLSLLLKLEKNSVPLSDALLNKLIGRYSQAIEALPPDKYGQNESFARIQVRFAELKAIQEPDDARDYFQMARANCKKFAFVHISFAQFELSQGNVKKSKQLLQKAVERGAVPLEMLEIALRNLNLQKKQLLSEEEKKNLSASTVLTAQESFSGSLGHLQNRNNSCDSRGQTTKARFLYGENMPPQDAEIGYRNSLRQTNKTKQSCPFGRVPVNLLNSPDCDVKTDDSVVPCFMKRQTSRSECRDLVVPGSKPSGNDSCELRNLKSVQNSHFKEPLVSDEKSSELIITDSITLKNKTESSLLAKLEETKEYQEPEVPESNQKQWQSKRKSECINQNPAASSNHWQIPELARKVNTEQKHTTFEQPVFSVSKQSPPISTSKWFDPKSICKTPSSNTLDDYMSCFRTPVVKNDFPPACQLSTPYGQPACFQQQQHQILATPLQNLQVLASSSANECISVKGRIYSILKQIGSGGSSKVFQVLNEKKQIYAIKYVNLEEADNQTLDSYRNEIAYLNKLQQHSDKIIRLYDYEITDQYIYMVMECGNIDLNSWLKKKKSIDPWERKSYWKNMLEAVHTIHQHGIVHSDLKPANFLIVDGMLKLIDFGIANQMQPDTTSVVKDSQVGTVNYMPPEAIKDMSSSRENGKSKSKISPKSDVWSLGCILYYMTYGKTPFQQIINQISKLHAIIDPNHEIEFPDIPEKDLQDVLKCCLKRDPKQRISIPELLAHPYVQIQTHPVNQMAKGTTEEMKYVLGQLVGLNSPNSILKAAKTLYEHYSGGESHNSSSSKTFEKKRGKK
# T5 sequence (P27037 20-513): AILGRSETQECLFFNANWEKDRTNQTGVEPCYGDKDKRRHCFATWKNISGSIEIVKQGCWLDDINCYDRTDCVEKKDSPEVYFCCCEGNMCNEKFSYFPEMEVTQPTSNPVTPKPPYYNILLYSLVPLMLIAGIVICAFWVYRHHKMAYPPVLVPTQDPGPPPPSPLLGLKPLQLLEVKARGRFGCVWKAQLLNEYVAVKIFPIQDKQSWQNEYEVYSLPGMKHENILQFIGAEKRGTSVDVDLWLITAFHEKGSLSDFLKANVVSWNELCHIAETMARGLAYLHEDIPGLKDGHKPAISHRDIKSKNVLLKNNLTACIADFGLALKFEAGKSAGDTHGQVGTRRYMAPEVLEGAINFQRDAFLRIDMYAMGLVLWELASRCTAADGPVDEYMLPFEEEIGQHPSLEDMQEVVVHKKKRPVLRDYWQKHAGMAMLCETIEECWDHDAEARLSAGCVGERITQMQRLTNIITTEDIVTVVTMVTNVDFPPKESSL
# T6 sequence (Q15208 whole entry): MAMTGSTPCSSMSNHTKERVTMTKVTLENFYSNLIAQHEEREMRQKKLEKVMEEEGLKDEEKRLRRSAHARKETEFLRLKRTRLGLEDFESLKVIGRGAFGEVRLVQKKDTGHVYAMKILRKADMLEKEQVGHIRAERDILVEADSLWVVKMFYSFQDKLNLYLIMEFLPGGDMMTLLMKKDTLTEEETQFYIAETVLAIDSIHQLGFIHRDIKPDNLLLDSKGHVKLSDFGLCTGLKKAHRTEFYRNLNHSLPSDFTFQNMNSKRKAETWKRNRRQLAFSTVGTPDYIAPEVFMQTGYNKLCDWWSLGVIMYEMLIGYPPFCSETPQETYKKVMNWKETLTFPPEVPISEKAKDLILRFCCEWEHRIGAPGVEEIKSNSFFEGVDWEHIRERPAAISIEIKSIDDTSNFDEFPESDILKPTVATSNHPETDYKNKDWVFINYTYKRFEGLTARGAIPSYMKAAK
# T4 sequence (P54646 whole entry): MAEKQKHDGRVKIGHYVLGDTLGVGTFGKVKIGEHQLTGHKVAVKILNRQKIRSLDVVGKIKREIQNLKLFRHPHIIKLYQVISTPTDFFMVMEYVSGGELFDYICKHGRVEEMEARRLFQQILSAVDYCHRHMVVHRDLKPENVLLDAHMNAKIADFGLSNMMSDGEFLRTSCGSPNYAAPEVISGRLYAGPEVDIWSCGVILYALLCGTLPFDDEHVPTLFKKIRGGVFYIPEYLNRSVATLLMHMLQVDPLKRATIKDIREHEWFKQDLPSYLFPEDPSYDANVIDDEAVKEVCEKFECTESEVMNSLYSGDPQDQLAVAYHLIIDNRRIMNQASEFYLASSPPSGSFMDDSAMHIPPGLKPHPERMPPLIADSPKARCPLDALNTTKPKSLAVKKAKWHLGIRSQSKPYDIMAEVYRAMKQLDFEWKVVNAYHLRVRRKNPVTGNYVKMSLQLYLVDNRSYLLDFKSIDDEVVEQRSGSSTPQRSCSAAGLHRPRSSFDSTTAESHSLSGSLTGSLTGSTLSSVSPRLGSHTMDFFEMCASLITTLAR
# T14 sequence (Q8IW41 whole entry): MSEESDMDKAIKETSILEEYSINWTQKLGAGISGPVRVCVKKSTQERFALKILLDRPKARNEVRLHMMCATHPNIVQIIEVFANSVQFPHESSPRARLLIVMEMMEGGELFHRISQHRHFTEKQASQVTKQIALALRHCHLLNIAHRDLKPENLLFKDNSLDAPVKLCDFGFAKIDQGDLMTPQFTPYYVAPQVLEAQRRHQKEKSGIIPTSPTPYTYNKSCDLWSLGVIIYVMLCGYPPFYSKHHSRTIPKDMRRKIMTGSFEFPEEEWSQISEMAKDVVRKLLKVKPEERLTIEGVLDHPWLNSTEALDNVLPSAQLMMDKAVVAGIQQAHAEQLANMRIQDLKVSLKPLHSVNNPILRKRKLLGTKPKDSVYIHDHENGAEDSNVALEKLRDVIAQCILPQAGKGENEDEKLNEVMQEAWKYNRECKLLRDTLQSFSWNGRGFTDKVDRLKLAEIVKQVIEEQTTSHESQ
structure (smiles),measurement,setting,value
CC(C)C(=O)N1CCN(c2ccc(NC(=O)c3cc4ccccc4o3)cc2Cl)CC1 [Compound 21],binding to BRAF,[1]; 10 µM of 21,failed to bind
same,Percent Control,[1]; kinase BRAF (Entrez BRAF),93%
same,Percent Control,[2],88%
same,Percent Control,[3],58%
same,Percent Control,[4],85%
same,Percent Control,[5],100%
same,Percent Control,[6],91%
same,FLT3 binding to its ligand affected,"[7]; 10 µM of 21, compared to DMSO (100%)",more than 90%
same,Percent Control,[7]; kinase FLT3 (Entrez FLT3),6.6%
same,Percent Control,[7]; kinase FLT3-autoinhibited (Entrez FLT3),71%
same,Percent Control,[8],87%
same,Percent Control,[9],77%
same,Percent Control,[10],100%
same,Percent Control,[11],75%
same,Percent Control,[12],100%
same,Percent Control,[13],100%
same,Percent Control,[14],98%
same,Percent Control,[15],97%
same,Percent Control,[16],92%

# Source: paper PMC8333425, “Discovery of a dual Ras and ARF6 inhibitor from a GPCR endocytosis screen” (Nature Communications, 2021)
